Experimental data published in patent US7022699B2, “Cyclohexenyl phenyl diazepines vasopressin and oxytocin receptor modulators” (Wyeth, priority 2001, dated 2006).

Legend:
human oxytocin receptor = molecular target: T1, human oxytocin receptor (Homo sapiens, UniProt P30559); test: Oxytocin binding in CHO cell membranes expressing human oxytocin receptors ([3H]oxytocin); conditions: for inhibition at 0.1 µM: 100 nM, values without parentheses, read-out: OT % inhibition @ 100 nM; for IC50: values in parentheses, read-out: OT (IC50)
T1 construct: host or cells: CHO cells, stably transfected (pcDNA3.1 vector); membranes
T1 sequence (P30559 1-389): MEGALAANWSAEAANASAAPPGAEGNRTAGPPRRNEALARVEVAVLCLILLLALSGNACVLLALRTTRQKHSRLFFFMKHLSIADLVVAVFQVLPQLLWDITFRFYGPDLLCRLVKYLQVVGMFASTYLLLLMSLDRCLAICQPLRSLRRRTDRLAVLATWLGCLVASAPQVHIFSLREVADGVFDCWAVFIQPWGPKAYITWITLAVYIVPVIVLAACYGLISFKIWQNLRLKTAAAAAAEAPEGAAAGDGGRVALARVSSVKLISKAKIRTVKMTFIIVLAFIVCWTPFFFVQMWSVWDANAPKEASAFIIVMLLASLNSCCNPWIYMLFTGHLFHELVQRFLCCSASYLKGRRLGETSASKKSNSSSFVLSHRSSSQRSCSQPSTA
Source text: Oxytocin Binding in Chinese Hamster Ovary Cell Membranes Expressing Human Oxytocin Receptors
Chinese Hamster Ovary (CHO) cells stably transfected with the human oxytocin (cf. Tanizawa et al., U.S. Pat. No. 5,466,584 (1995) to Rohto Pharmaceutical Co. Ltd., Osaka, Japan) were obtained from M. Thibonnier, Case Western Reserve University School of Medicine, Cleveland, Ohio. A. Passaging and Amplification of Cells: CHO cells transfected with the human oxytocin receptors obtained from M. Thibonnier (pcDNA3.1 vector) are allowed to grow to confluency (approx. >90%) in T-150 flasks under sterile conditions, in a cell culture medium of F-12 Nutrient Mixture (HAM) with L-glutamine (Gibco Cat. #11765-054) containing 15 mM HEPES (Gibco Cat. #15630-080), 1% antibiotic/antimycotic (add 5 mL 100×, Gibco Cat. #15240-062 per 500 mL F-12), 400 μg/mL of Geneticin (add 4 mL of 50 mg/mL per 500 mL F-12) and 10% Fetal Bovine Serum (Qualified, heat inactivated, Gibco Cat. #16140-063). The medium is removed by aspiration and the cells are washed with 10 mL of Hank's Balanced Salt solution (Gibco Cat. #14175-095). The salt solution is removed by aspiration and the cells trypsinized with 5 mL of trypsin-EDTA (0.05% trypsin, 0.53 mM EDTA-4Na, Gibco Cat. #25300-070) for 1 min. The trypsin is removed by aspiration and the cells dislodged by tapping. Cell Culture medium (e.g. 30 mL for 1:30 split) is immediately added and mixed well to inactivate trypsin. 1 mL of detached cells is added to new culture flasks containing fresh Cell Culture medium (e.g. into 25 mL per T-150 flask), and mixed gently. The cells are incubated at 37° C. in 5% CO2. The medium is changed at 3 to 4 days interval (or as appropriate). The cells grow to confluency (approx. >75%–95%) within 7–8 days. All steps are done under sterile conditions. B. Membrane Preparation: The cells are washed twice gently with Hank's Balanced Salt solution (e.g., use 10 mL per T-150 flask). The excess is removed and the cells bathed for 15–30 min. in an enzyme-free Cell Dissociation Buffer (e.g., use 8 mL Hank's Based, Gibco Cat. #13150-016 per T-150 flask) until cells are loosened. The contents are transferred to centrifuge tubes (50 mL size) kept in ice bath. All subsequent steps are done at 4° C. The tubes are centrifuged at 300×g for 15 min (1380 rpm on SORVAL, Model RT6000D, using rotor for 50 mL tubes). The supernatant is discarded and the cells suspended in homogenizing buffer (10 mM Tris-HCl containing 0.25 M sucrose and 1 mM EDTA, pH 7.4) ensuring that the volume of the buffer is about ten times the volume of the cell pellet. The cells are pooled into a centrifuge tube (50 mL) and homogenized with Polytron at setting 6 for 10 sec. The homogenate is transferred into a Potter-Elvjehm homogenizer and homogenized with 3 strokes. The homogenate is centrifuged at 1500×g for 10 min at 4° C. (3100 rpm using SORVAL, model RT6000D, using rotor for 50 mL tubes). The pellet. is discarded. The supernatant is centrifuged at 100,000×g for 60 min. at 4° C. (Beckman L8-80M ultracentrifuge; spin at 37,500 rpm with rotor type 70 Ti for 50 mL tubes; 38,000 rpm with type 80Ti for 15 mL tubes; or 35,800 rpm with rotor type 45Ti). The supernantant is discarded and the pellet suspended in 3 to 4 mL of Tris buffer (50 mM TRIS-HCl, pH 7.4). The protein content is estimated by the Bradford or Lowry method. The volume of the membrane suspension is adjusted with the membrane buffer (50 mM Tris-HCl containing 0.1% BSA and 0.1 mM PMSF) to give 3.0 mg/mL (or as appropriate) of protein. The membranes are aliquoted and stored at −70° C. C. Radioligand Binding Assay: In wells of a 96-well format microliter plate, is added 90, 110 or 130 μL (to make up a final volume of 200 μL) of assay buffer containing 50 mM of Tris-HCl (pH 7.4), […], 1 mg % aprotinin, 1 mg % leupeptin, 2 mg % 1,10-phenanthroline, 10 mg % trypsin inhibitor, and 0.1 mM PMSF. The inhibitors are added on the day of the experiment. […]

Structure (SMILES): O=C(c1ccc(C2=CCCc3ccccc32)cc1Cl)N1Cc2cccn2Cc2ccccc21 [Example 11, (10,11-Dihydro-5H-pyrrolo[2,1-c][1,4]benzodiazepin-10-yl)-[2-chloro-4-(3,4-dihydro-naphthalen-1-yl)-phenyl]-methanone]
- melting point: 174 to 176 °C
- inhibition at 0.1 µM (human oxytocin receptor): 65%

Structure (SMILES): O=C(c1ccc(C2=CCCCC2)cc1)N1Cc2cccn2Cc2ccccc21 [Example 15, (10,11-Dihydro-5H-pyrrolo[2,1-c][1,4]benzodiazepin-10-yl)-(4-cyclohex-1-en-1-yl-phenyl)-methanone]
- melting point: 156 °C
- IC50 (human oxytocin receptor): 48.9 nM

Structure (SMILES): CC1CCCC=C1c1ccc(C(=O)N2Cc3cccn3Cc3ccccc32)cc1 (stereo not drawn) [Example 16, (10,11-Dihydro-5H-pyrrolo[2,1-c][1,4]benzodiazepin-10-yl)-[4-(6-methyl-cyclohex-1-en-1-yl)-phenyl]-methanone]
- melting point: 108 to 109 °C
- IC50 (human oxytocin receptor): 21.8 nM

Structure (SMILES): CC1(C)CCCC=C1c1ccc(C(=O)N2Cc3cccn3Cc3ccccc32)cc1 [Example 17, (10,11-Dihydro-5H-pyrrolo[2,1-c][1,4]benzodiazepin-10-yl)-[4-(6,6-dimethyl-cyclohex-1-en-1-yl)-phenyl]-methanone]
- melting point: 118 °C
- inhibition at 0.1 µM (human oxytocin receptor): 76%

Structure (SMILES): O=C(c1ccc(C2=CCCc3ccccc32)cc1)N1Cc2cccn2Cc2ccccc21 [Example 18, (10,11-Dihydro-5H-pyrrolo[2,1-c][1,4]benzodiazepin-10-yl)-[4-(3,4-dihydro-naphthalen-1-yl)-phenyl]-methanone]
- melting point: 166 °C
- inhibition at 0.1 µM (human oxytocin receptor): 80%

Structure (SMILES): CC1=C(c2ccc(C(=O)N3Cc4cccn4Cc4ccccc43)cc2)C(C)CCC1 (stereo not drawn) [Example 19, (10,11-Dihydro-5H-pyrrolo[2,1-c][1,4]benzodiazepin-10-yl)-[4-(2,6-dimethyl-cyclohex-1-en-1-yl)-phenyl]-methanone]
- melting point: 153 to 154 °C
- inhibition at 0.1 µM (human oxytocin receptor): 47%

Structure (SMILES): CC1(C)C2CC=C(c3ccc(C(=O)N4Cc5cccn5Cc5ccccc54)cc3)C1C2 (stereo not drawn) [Example 22, (10,11-Dihydro-5H-pyrrolo[2,1-c][1,4]benzodiazepin-10-yl)-[4-(6,6-dimethyl-bicyclo[3.1.1]hept-2-en-2-yl)-phenyl]-methanone]
- melting point: 118 to 119 °C
- inhibition at 0.1 µM (human oxytocin receptor): 32%

Structure (SMILES): CC1(C)C=C(c2ccc(C(=O)N3Cc4cccn4Cc4ccccc43)cc2)CC(C)(C)C1 [Example 23, (10,11-Dihydro-5H-pyrrolo[2,1-c][1,4]benzodiazepin-10-yl)-[4-(3,3,5,5-tetramethyl-cyclohex-1-en-1-yl)-phenyl]-methanone]
- melting point: 142 to 143 °C
- inhibition at 0.1 µM (human oxytocin receptor): 7%

Structure (SMILES): O=C1C=C(c2ccc(C(=O)N3Cc4cccn4Cc4ccccc43)cc2)CCC1 [Example 24, 3-[4-(10,11-Dihydro-5H-pyrrolo[2,1-c][1,4]benzodiazepine-10-carbonyl)-phenyl]-cyclohex-2-en-1-one]
- melting point: 205 to 207 °C
- inhibition at 0.1 µM (human oxytocin receptor): 70%

Structure (SMILES): CC1=C(c2ccc(C(=O)N3Cc4cccn4Cc4ccccc43)cc2)CCCC1=O [Example 26, 3-[4-(10,11-Dihydro-5H-pyrrolo[2,1-c][1,4]benzodiazepine-10-carbonyl)-phenyl]-2-methyl-cyclohex-2-en-1-one]
- melting point: 95 to 97 °C
- inhibition at 0.1 µM (human oxytocin receptor): 80%

Structure (SMILES): Cc1cc(C(=O)N2Cc3cccn3Cc3ccccc32)ccc1C1=CCCCC1C (stereo not drawn) [Example 29, (10,11-Dihydro-5H-pyrrolo[2,1-c][1,4]benzodiazepin-10-yl)-[3-methyl-4-(6-methyl-cyclohex-1-en-1-yl)-phenyl]-methanone]
- melting point: 132 to 133 °C
- inhibition at 0.1 µM (human oxytocin receptor): 81%

Structure (SMILES): Cc1cc(C(=O)N2Cc3cccn3Cc3ccccc32)ccc1C1=CCCCC1(C)C [Example 30, (10,11-Dihydro-5H-pyrrolo[2,1-c][1,4]benzodiazepin-10-yl)-[4-(6,6-dimethyl-cyclohex-1-en-1-yl)-3-methyl-phenyl]-methanone]
- melting point: 131 °C
- inhibition at 0.1 µM (human oxytocin receptor): 67%
